Results reported in patent US11311559B2, “Compositions and methods for enhanced delivery of antiviral agents” (POVIVA CORP., priority 2020, dated 2022).

Test: Plasma exposure after oral administration of formulations in rats (LC-MS/MS, WinNonlin)
Experimental: In this study, the exposure and distribution of darunavir and efavirenz were evaluated following oral administration in male Sprague-Dawley rats. Four cohorts of 10 rats each were used in this study. The first cohort involved darunavir using the disclosed formulations and the second cohort darunavir in a control formulation. The third cohort involved efavirenz using the disclosed formulations and the fourth cohort efavirenz in a control formulation.
Formulations were administered orally (PO) at 10 mg/kg of darunavir or efavirenz. Following dosing, blood, urine and fecal samples were collected up to 8-hour post dose (groups 1, 3, 5, and 7) or 24-hour post dose (groups 2, 4, 6, and 8). Brain tissue was collected at 8 hours or 24 hours, following the 8 hour or 24-hour urine and feces sample collection. Plasma, urine, feces, and brain tissue concentrations of the analytes were determined by LC-MS/MS. Plasma pharmacokinetic parameters were determined using WinNonlin (v8.0) software.
Plasma, urine, feces, and brain tissue samples were extracted and analyzed using the methods described as follows.
Analytical stock solutions (1.00 mg/mL of the free drug) were prepared in DMSO. Sample Homogenization Brain tissue and feces samples were homogenized with a Virsonic 100 ultrasonic homogenizer. Each brain tissue sample was first weighed, and then an appropriate volume of 20:80 methanol:water was added to make a 2 mL/gram sample. Samples were then homogenized on ice, and stored frozen until analysis. Feces samples were homogenized with 20:80 MeOH:water (8 mL/gram of tissue) prior to extraction. Standard Preparation (Plasma, Urine, and Brain) Standards were prepared in rat plasma containing sodium heparin as the anticoagulant, or in blank tissue homogenate. Working solutions were prepared in 50:50 acetonitrile:water. […] Diluted urine samples were quantified against the rat plasma calibration curve. Brain and feces tissue homogenates were quantified against calibration curves prepared in matched blank tissue homogenate.

plasma concentration of disclosed compositions versus control formulations (rat, in vivo) | Compound | plasma concentration of disclosed compositions versus control formulations (disclosed compositions compared with compositions without the bioavailability agents) | average plasma concentration (test animals (disclosed test formulation), at 1 hour)
– | CC(C)CN(C[C@@H](O)[C@H](Cc1ccccc1)NC(=O)O[C@H]1CO[C@H]2OCC[C@H]21)S(=O)(=O)c1ccc(N)cc1 [darunavir] | double | approximately 306 ng/mL
higher levels | O=C1Nc2ccc(Cl)cc2[C@@](C#CC2CC2)(C(F)(F)F)O1 [efavirenz] | – | –
